Measurements from paper PMC9408872, “Harmicens, Novel Harmine and Ferrocene Hybrids: Design, Synthesis and Biological Activity” (International Journal of Molecular Sciences, 2022).
Like-named read-outs stand apart in the source and are kept apart here.

Columns and labels:
[1] = tested on: P. falciparum 3D7 (CQ-sensitive) erythrocytic stages; experiment: In vitro drug sensitivity assay (HRP2-ELISA) against erythrocytic stages, Pf3D7; format: cell-based; conditions: read-out: IC50 Pf3D7
Method: (§1) The in vitro activity of harmicens 20–37 against the erythrocytic stages of CQ-sensitive (Pf3D7) and multidrug-resistant (PfDd2) P. falciparum strains was evaluated following a previously described method (Table 1).
(§2) The antiplasmodial activity of harmicens 20–37 was evaluated against two strains of P. falciparum (3D7—CQ-sensitive, Dd2—multidrug-resistant) as previously described using the histidine-rich protein 2 (HRP2) assay. Briefly, 96-well plates were pre-coated with the tested compounds in a three-fold dilution before ring-stage parasites were added to complete the culture medium at a hematocrit of 1.5% and parasitemia of 0.05%. After three days of incubation at 37 °C, 5% CO2, and 5% oxygen, plates were frozen until HRP2-ELISA analysis. All compounds were evaluated in duplicate in at least two independent experiments. The IC50 was determined using a nonlinear regression analysis of log concentration–response curves using the drc-package v0.9.0 of R v2.6.1 (R Foundation, Vienna, Austria).

[2] = tested on: P. falciparum Dd2 (multidrug-resistant) erythrocytic stages; experiment: In vitro drug sensitivity assay (HRP2-ELISA) against erythrocytic stages, PfDd2; format: cell-based; conditions: for IC50: read-out: IC50 PfDd2
Method: as §1, §2

[3] = tested on: HepG2 (hepatocellular carcinoma); experiment: MTT cytotoxicity assay, HepG2; format: cell-based, human; conditions: read-out: IC50 HepG2
Method: (§3) The parent compound harmine, as well as the reference drug 5-fluorouracil, were used as positive controls.
(§4) The experiments were carried out on five human cell lines purchased from American Type Culture Collection (ATCC): HepG2 (hepatocellular carcinoma; ATCC® HB-8065™), SW620 (colorectal adenocarcinoma; ATCC® CCL-227™), HCT116 (colorectal carcinoma; ATCC® CCL-247™), MCF-7 (breast adenocarcinoma; ATCC® HTB-22™), and Hek293T (embryonic kidney cells; ATCC® CRL-3216™). All cell lines were cultured as monolayers and maintained in Dulbecco’s Modified Eagle Medium (DMEM) (Capricorn Scientific, Ebsdorfergrund, Germany) supplemented with 10% fetal bovine serum (FBS) (Capricorn Scientific, Ebsdorfergrund, Germany), 100 U/mL penicillin, and 100 µg/mL streptomycin (Capricorn Scientific, Ebsdorfergrund, Germany) in a humidified atmosphere with 5% CO2 at 37 °C. Cells were seeded in 96-well plates (Corning, Durham, NC, USA) at 5000–7000 cells per well (depending on the cell-doubling time of a specific cell line) in 0.1 mL media and cultured for 24 h. The next day, the medium was aspirated, and cells were treated for 72 h. Only the compounds that led to more than a 50% reduction in mitochondrial metabolic activity at a concentration of 50 µM were selected for further analysis. The following concentrations of selected compounds were used: 25, 10, 5, and 1 µM. Working dilutions were freshly prepared on the day of the testing. A fresh growth medium was added to untreated control cells, which were defined as 100% viable. DMSO (0.13%) in DMEM was considered a negative control. 5-Fluorouracil (5-FU) and harmine were used as positive controls. At the end of treatment, the medium was removed, and cells were incubated for 1 h with 0.5 mg/mL MTT (Abcam, Cambridge, MA, USA) dissolved in serum-deprived DMEM. The MTT-containing medium was then removed, and 0.1 mL isopropanol was added per well to lyse cells and dissolve formazan. The optical density was measured at 570 nm using a microplate reader (VICTOR3, PerkinElmer, Waltham, MA, USA). Each test point was performed in triplicate. The absorbance was directly proportional to the cell viability. The IC50 values (concentration required to decrease viability by 50%) were calculated by using nonlinear regression on the sigmoidal dose–response plots and are expressed as mean ± SD.

[4] = tested on: SW620 (colorectal adenocarcinoma); experiment: MTT cytotoxicity assay, SW620; format: cell-based, human; conditions: read-out: IC50 SW620
Method: as §3, §4

[5] = tested on: HCT116 (colorectal carcinoma); experiment: MTT cytotoxicity assay, HCT116; format: cell-based, human; conditions: for IC50: read-out: IC50 HCT116; for SI (HCT116): selectivity index: ratio of IC50 Hek293T to IC50 HCT116
Method: as §3, §4

[6] = tested on: MCF-7 (breast adenocarcinoma); experiment: cells; conditions: for IC50: read-out: IC50 MCF-7; for SI (MCF-7): selectivity index: ratio of IC50 Hek293T to IC50 MCF-7
Method: as §3, §4

[7] = tested on: Hek293T (embryonic kidney cells); experiment: MTT cytotoxicity assay, Hek293T; format: cell-based, human; conditions: 72 h, read-out: IC50 Hek293T
Method: as §3, §4

[8] = CQ-sensitive strain, three days incubation, mean ± SD
[9] = multidrug-resistant strain, three days incubation, mean ± SD
[10] = noncancer cell line, MTT, mean ± SD
[11] = Plasmodium falciparum, DD2, 72 h

IC50 [1, 8]	IC50 [2, 9]	IC50 ([6]; 72 h, MTT, mean ± SD)	SMILES	IC50 ([3]; 72 h, MTT, mean ± SD)	IC50 ([4]; 72 h, MTT, mean ± SD)	IC50 ([5]; 72 h, MTT, mean ± SD)	SI (HCT116) [5]	SI (MCF-7) [6]	IC50 [7, 10]	further results
2.63 ± 0.27 µM	4.02 ± 0.61 µM	3.7 ± 0.2 µM	Cc1nc(-c2cn(C[c-]3cccc3)nn2)cc2c1[nH]c1ccccc12.[Fe+2].c1cc[cH-]c1 [Compound 26, 3-(1-(Ferrocenylmethyl)-1H-1,2,3-triazol-4-yl)-1-methyl-9H-pyrido[3,4-b]indole]	12.3 ± 5 µM	3.8 ± 0.4 µM	35.2 ± 4.7 µM	1.3	12.6	46.5 ± 1 µM	activity against MCF-7 relative to 5-FU (fold stronger) [6]: 3–6.5 fold
> 56 µM	14 ± 1.95 µM	8.5 ± 1.5 µM	O=C(NCc1nccc2c1[nH]c1ccccc12)[c-]1cccc1.[Fe+2].c1cc[cH-]c1 [Compound 30, N-((9H-Pyrido[3,4-b]indol-1-yl)methyl)ferrocenecarboxamide]	> 50 µM	45.1 ± 3.7 µM	16.8 ± 0.9 µM	>3	>5.9	> 50 µM	activity against MCF-7 relative to 5-FU (fold stronger) [6]: 3–6.5 fold
0.35 ± 0.19 µM	0.89 ± 0.01 µM	6.9 ± 0.5 µM	Cc1nccc2c1[nH]c1ccc(OCCn3cc(-[c-]4cccc4)nn3)cc12.[Fe+2].c1cc[cH-]c1 [Compound 22, 1-Methyl-6-(2-(4-ferrocenyl-1H-1,2,3-triazol-1-yl)ethoxy)-9H-pyrido[3,4-b]indole]	8.4 ± 0.9 µM	6.5 ± 0.7 µM	9 ± 0.7 µM	0.8	1.1	7.3 ± 2.8 µM	
1.34 ± 0.09 µM	1.11 ± 0.01 µM	> 50 µM	O=C(C[c-]1cccc1)NCc1nccc2c1[nH]c1ccccc12.[Fe+2].c1cc[cH-]c1 [Compound 34, N-((9H-Pyrido[3,4-b]indol-1-yl)methyl)-2-ferrocenylacetamide]	> 50 µM	> 50 µM	> 50 µM	>1	>1	> 50 µM	
0.15 ± 0.05 µM	1.02 ± 0.52 µM	8 ± 0.2 µM	Cc1nccc2c1[nH]c1cc(OCCn3cc(-[c-]4cccc4)nn3)ccc12.[Fe+2].c1cc[cH-]c1 [Compound 23, 1-Methyl-7-(2-(4-ferrocenyl-1H-1,2,3-triazol-1-yl)ethoxy)-9H-pyrido[3,4-b]indole]	9.5 ± 0.5 µM	7.6 ± 0.1 µM	38.6 ± 2.8 µM	0.4	2.1	17.1 ± 1.8 µM	

The next lines start with the molecule.

SMILES	IC50 [1, 8]	IC50 [2, 9]	IC50 ([6]; 72 h, MTT, mean ± SD)	IC50 ([3]; 72 h, MTT, mean ± SD)	IC50 ([4]; 72 h, MTT, mean ± SD)	IC50 ([5]; 72 h, MTT, mean ± SD)	SI (HCT116) [5]	SI (MCF-7) [6]	IC50 [7, 10]	further results
Cc1nc(CNC(=O)C[c-]2cccc2)cc2c1[nH]c1ccccc12.[Fe+2].c1cc[cH-]c1 [Compound 35, N-((1-Methyl-9H-pyrido[3,4-b]indol-3-yl)methyl)-2-ferrocenylacetamide]	7.85 ± 2.18 µM	13 ± 5.9 µM	36.9 ± 6.8 µM	> 50 µM	25 ± 8.1 µM	20.9 ± 1.5 µM	>2.4	>1.4	> 50 µM	
Cc1nccc2c1[nH]c1cc(OCCNC(=O)[c-]3cccc3)ccc12.[Fe+2].c1cc[cH-]c1 [Compound 32, N-(2-((1-Methyl-9H-pyrido[3,4-b]indol-7-yl)oxy)ethyl)ferrocenecarboxamide]	0.3 ± 0.09 µM	0.66 ± 0.01 µM	9.1 ± 1.4 µM	15.6 ± 0.3 µM	9.9 ± 4 µM	6.6 ± 0.8 µM	2.8	2	18.6 ± 0.2 µM	
COc1ccc2c3ccnc(C)c3n(CCn3cc(-[c-]4cccc4)nn3)c2c1.[Fe+2].c1cc[cH-]c1 [Compound 24, 7-Methoxy-1-methyl-9-(2-(4-ferrocenyl-1H-1,2,3-triazol-1-yl)ethyl)-9H-pyrido[3,4-b]indole]	1.35 ± 0.28 µM	2.31 ± 0.29 µM	> 50 µM	> 50 µM	> 50 µM	> 50 µM	>1	>1	> 50 µM	
COc1ccc2c3ccnc(C)c3n(CCNC(=O)[c-]3cccc3)c2c1.[Fe+2].c1cc[cH-]c1 [Compound 33, N-(2-(7-Methoxy-1-methyl-9H-pyrido[3,4-b]indol-9-yl)ethyl)ferrocenecarboxamide]	0.4 ± 0.18 µM	2.04 ± 0.29 µM	30.5 ± 13.2 µM	> 50 µM	> 50 µM	16.3 ± 3.2 µM		>1.7	> 50 µM	
COc1ccc2c3ccnc(C)c3n(CCNC(=O)C[c-]3cccc3)c2c1.[Fe+2].c1cc[cH-]c1 [Compound 37, N-(2-(7-Methoxy-1-methyl-9H-pyrido[3,4-b]indol-9-yl)ethyl)-2-ferrocenylacetamide]	0.83 ± 0.23 µM	1.8 ± 0.35 µM	13.2 ± 0.5 µM	28 ± 2.5 µM	9.9 ± 1.1 µM	7.5 ± 0.4 µM	4.1	2.3	30.8 ± 2.4 µM	
O=c1[nH]cc(F)c(=O)[nH]1 [Compound 5-FU, 5-fluorouracil, reference compound]							1.6	0.3		IC50 ([3]; Homo sapiens, HepG2, 72 h, MTT, mean ± SD): 5.5 ± 0.6 µM; IC50 ([4]; Homo sapiens, SW-620, 72 h, MTT, mean ± SD): 9.4 ± 0.3 µM; IC50 ([5]; Homo sapiens, HCT-116, 72 h, MTT, mean ± SD): 5.2 ± 2.8 µM; IC50 ([6]; Homo sapiens, MCF7, 72 h): 23.9 ± 5.7 µM; IC50 ([7]; Homo sapiens, HEK-293T, noncancer cell line, MTT, mean ± SD): 8.1 ± 0.8 µM
COc1ccc2c(c1)[nH]c1c(C)nccc12 [HAR, harmine]										IC50 [2, 11]: > 27.7 µM; IC50 PfDd2 [2, 9]: not active at all; IC50 ([3]; Homo sapiens, HepG2, 72 h): 18.7 ± 0.8 µM; IC50 ([4]; Homo sapiens, SW-620, 72 h): 4.7 ± 0.6 µM; IC50 ([5]; Homo sapiens, HCT-116, 72 h): 4 ± 0.8 µM; IC50 ([6]; Homo sapiens, MCF7, 72 h): 13.5 ± 1.1 µM; IC50 ([7]; Homo sapiens, HEK-293T): 12.6 ± 0.8 µM
CCN(CC)CCCC(C)Nc1ccnc2cc(Cl)ccc12 (centres unmarked) [CQ, chloroquine, reference compound]										IC50 ([1]; Plasmodium falciparum, 3D7, 72 h): 0.004 ± 0.002 µM; IC50 [2, 11]: 0.29 ± 0.1 µM
Cc1nc(CNC(=O)[c-]2cccc2)cc2c1[nH]c1ccccc12.[Fe+2].c1cc[cH-]c1 [Compound 31, N-((1-Methyl-9H-pyrido[3,4-b]indol-3-yl)methyl)ferrocenecarboxamide]	13.2 ± 8.54 µM	8.03 ± 0.19 µM	19.9 ± 1.1 µM	> 50 µM	> 50 µM	> 50 µM	>1	>2.51	> 50 µM	
Cc1nc(Cn2cc(-[c-]3cccc3)nn2)cc2c1[nH]c1ccccc12.[Fe+2].c1cc[cH-]c1 [Compound 21, 1-Methyl-3-((4-ferrocenyl-1H-1,2,3-triazol-1-yl)methyl)-9H-pyrido[3,4-b]indole]	7.14 ± 0.38 µM	6.06 ± 1.36 µM	17.7 ± 0.6 µM	> 50 µM	19.7 ± 1.9 µM	8.3 ± 1.4 µM	>6	>2.8	> 50 µM	
